The values below come from patent US4226883A, “Carbamate derivatives and method for manufacture thereof” (priority 1974, dated 1980).

Like-named read-outs stand apart in the source and are kept apart here. A value given as a limit tells only on which side of the number the result lay.

Data set [1] has as its system Culex pipiens pallens immunized against organophosphoric preparations, last larval state. Kind of data set: Test Example 9 (W.H.O. method): mosquito larvae test. The data set is classed as in vivo. The following applies: Culex pipiens, 24 h, read-out: Effect of compound used singly, LD50 (Table 16). The method, then:
(1) An ethyl alcohol solution of each test compound was diluted with water to varying concentrations in the range of from 0.01 to 1.0 ppm.
(2) A 200-ml portion of each solution of a different concentration was placed in a 300-ml beaker. Then 30 test insects were plunged into the solution and then removed.
(3) The insects removed from the solution were kept in a greenhouse at a constant temperature of 25±1° C. for 24 hours. At the end of 24 hours of standing, a count was taken of the number of insects that had died by that time.
The test described above was repeated twice or thrice.

The test system of data set [2] is resistant green rice leafhoppers (R). Particulars: for Insecticidal Activity R/S (resistant ratio): ratio of the resistant strain to the susceptible strain (LD50), 1440 min. The method, boiled down:
(§1)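 Test compounds were diluted in acetone and applied topically to the thorax of female green rice leafhoppers at 0.2 μl per head. Insects were then held in cups with […] at 26±1 °C, and mortality was counted after 24 h. LD50 for mixtures is expressed as total dosage.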

Data set [3] deals with green rice leafhoppers of the strain RN. In words: Test Example 3: dust spray test (20 mesh metal gauze cylinder). It counts as in vivo, Nephotettix cincticeps. Particulars: 24 hr.
In data set [4] the test system is citrus red mites (Panonychus citri McGregor) immunized from Dimethoate. Kind of data set: whole plant or invertebrate. Particulars: foliar, 24 h, read-out: Mortality (%), Concentration 250 ppm.
For data set [5], the target named is cholinesterase (ChE), susceptible strain. In words: Inhibition of cholinesterase (acetylthiocholine method), susceptible strain enzyme. It counts as biochemical, green rice leafhopper, Nephotettix cincticeps. The following applies: 50% inhibition concentration, 30° C. 30 min with inhibitor, read-out: Inhibition of Cholinesterase I50 (M) S. The procedure: The activity of ChE was performed by the acethyethiocholine method [Ellman (1961), Biochemical Pharmacology 7: 88-95].
[…]. After centrifuged (30,000 g, 10 min.), the supernatant was used as the source of ChE.
(§2) (2) Inhibition: 1.0 ml of enzyme solution was incubated with 0.1 ml of inhibitor which diluted with acetone at 30° C. for 30 min. ((2) solution).
(3) Determination of ChE activity: 1.0 ml of acetylthiochline (3.5/2×10^-2 M), 1.0 ml of DTNB (5,5'-dithiobis-2-nitrobenzoic acid, 2.5×10^-4 M) and 4.0 ml of phosphate buffer (1/15 M, pH 7.4) were added to the (2) solution and incubated at 30° C. for 10 min. After incubation, […] of eserine (2×10^-3 M) was added in order to stop the enzyme reaction and the optical density of the yellow solution was measured at 412 mμ on the spectrophotometer.

In data set [6] the test system is cholinesterase (ChE), resistant strain. It counts as biochemical, green rice leafhopper, Nephotettix cincticeps. The following applies: for Inhibition of Cholinesterase R/S (resistant ratio): ratio of the resistant strain to the susceptible strain (I50), 30 min; for IC50: resistant strain, 50% inhibition concentration, 30° C. 30 min with inhibitor, read-out: Inhibition of Cholinesterase I50 (M) R. The procedure: After centrifuged (30,000 g, 10 min.), the supernatant was used as the source of ChE.
as §2
(3) Determination of ChE activity: 1.0 ml of acetylthiochline (3.5/2×10^-2 M), 1.0 ml of DTNB (5,5'-dithiobis-2-nitrobenzoic acid, 2.5×10^-4 M) and 4.0 ml of phosphate buffer (1/15 M, pH 7.4) were added to the (2) solution and incubated at 30° C. for 10 min.

In data set [7] the test system is sensitive green rice leafhoppers (S). Particulars: susceptible strain, topical. The method, boiled down: as §1

Regarding `CCCNC(=O)Oc1cccc(C)c1` [Compound 26, 3-methylphenyl-N-n-propylcarbamate], the LC50 in data set [1] was > 1 µg/mL. Moreover, the “Insecticidal Activity R/S (resistant ratio)” value in data set [2] is recorded as 0.6. The mortality at 100 mg/cylinder in data set [3] (2% dust, 100 mg, read-out: Mortality (%) after 24 hr., 100 mg Spray (Table 7)) worked out at 70%; in data set [3] (Table 8, dust 100 mg, read-out: Mortality (%) after 24 hr., Spray Volume 100 mg) it was 70%. The mortality at 250 mg/cylinder amounted to 100% in data set [3] (2% dust, 250 mg, read-out: Mortality (%) after 24 hr., 250 mg Spray (Table 7)) and 100% in data set [3] (Table 8, dust 250 mg, read-out: Mortality (%) after 24 hr., Spray Volume 250 mg). Also, the mortality at 250 ppm in data set [4] was found to be 85%.

In the case of `CNC(=O)Oc1cccc(C(C)(C)C)c1` [Compound 32, 3-tert-butylphenyl-N-methylcarbamate, reference compound], the IC50 in data set [5] worked out at 7.2e-07 M; in data set [6] it was 1.2e-05 M. Further, the “Inhibition of Cholinesterase R/S (resistant ratio)” value in data set [6] came out at 16.6. The “Insecticidal Activity R/S (resistant ratio)” value in data set [2] was 31.3. The “Insecticidal Activity (after 24 hrs.) LD50 (μg/g) R” value in data set [2] (resistant strain, topical, 24 hrs) came to 50.0 µg/g. For the same molecule, the “Insecticidal Activity (after 24 hrs.) LD50 (μg/g) S” value in data set [7] is 1.6 µg/g.

`CCc1ccc(OC(=O)NC)cc1CC` [Compound 50, reference compound]: the IC50 in data set [5] worked out at 1.1e-06 M. Also, in data set [6], the “Inhibition of Cholinesterase R/S (resistant ratio)” value is recorded as 46.4 and the IC50 was 5.1e-05 M. The mortality at 250 ppm in data set [4] was found to be 70%.
